Data set [1] can be described thus: Metabolic stability in human liver microsomes. Type of data set: ADME, Microsome. For orientation: Liver microsomes are vesicles of endoplasmic reticulum, rich in cytochrome P450 enzymes.
The target in data set [2] is NACHT, LRR and PYD domains-containing protein 3 (Mus musculus, UniProt Q8R4B8). The experiment in a line: Inhibition of NLRP3 inflammasome in C57BL/6 mouse BMDM cells assessed as inhibition of LPS/nigericin-induced IL-1 beta secretion pretreated with LPS for 3 hrs followed by incubation with compound for 40 mins and later stimulated with nigericin for 35 mins by ELISA. It is filed as cell-based. Background: ELISA stands for enzyme-linked immunosorbent assay.
Chain of NACHT, LRR and PYD domains-containing protein 3 (Q8R4B8 whole entry, the tested form may be a part): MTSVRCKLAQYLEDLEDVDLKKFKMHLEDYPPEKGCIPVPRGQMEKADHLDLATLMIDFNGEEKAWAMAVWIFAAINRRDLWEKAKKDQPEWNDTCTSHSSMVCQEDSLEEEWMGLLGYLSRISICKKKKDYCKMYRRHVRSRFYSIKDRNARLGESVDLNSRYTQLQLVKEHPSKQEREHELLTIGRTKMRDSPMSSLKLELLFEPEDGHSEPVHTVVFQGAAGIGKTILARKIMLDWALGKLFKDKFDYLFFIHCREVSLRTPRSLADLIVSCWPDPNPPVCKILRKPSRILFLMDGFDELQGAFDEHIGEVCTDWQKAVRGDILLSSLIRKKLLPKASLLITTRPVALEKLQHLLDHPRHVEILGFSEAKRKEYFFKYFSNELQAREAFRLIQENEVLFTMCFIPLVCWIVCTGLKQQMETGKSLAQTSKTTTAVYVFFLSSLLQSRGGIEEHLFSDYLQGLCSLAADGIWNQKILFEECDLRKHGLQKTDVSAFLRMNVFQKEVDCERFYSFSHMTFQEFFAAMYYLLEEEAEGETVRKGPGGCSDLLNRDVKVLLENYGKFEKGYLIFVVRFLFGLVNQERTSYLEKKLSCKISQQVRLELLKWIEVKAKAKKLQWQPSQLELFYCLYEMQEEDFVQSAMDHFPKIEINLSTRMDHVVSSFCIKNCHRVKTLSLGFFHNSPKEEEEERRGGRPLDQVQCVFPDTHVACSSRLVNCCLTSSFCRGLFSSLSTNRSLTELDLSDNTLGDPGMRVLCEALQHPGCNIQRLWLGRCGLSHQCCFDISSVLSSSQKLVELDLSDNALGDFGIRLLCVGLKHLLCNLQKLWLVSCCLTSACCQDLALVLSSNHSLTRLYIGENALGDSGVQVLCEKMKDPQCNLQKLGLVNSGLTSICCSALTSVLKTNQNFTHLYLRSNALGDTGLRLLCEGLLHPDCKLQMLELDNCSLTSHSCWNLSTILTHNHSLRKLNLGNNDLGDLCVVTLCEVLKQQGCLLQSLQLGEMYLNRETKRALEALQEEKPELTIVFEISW

The test system of a further data set is THP-1. As to the kind of experiment: Effect on NLRP3 protein expression in PMA-differentiated human THP-1 cells at 0.2 to 0.8 uM pretreated with compound for 40 mins followed by LPS challenge for 3 hrs by western blot analysis. It is filed as functional, cell-based. Particulars: dose 0.2-0.8 µM, time 220.0 min.
The species named for another data set is Homo sapiens. The experiment in a line: Binding affinity to N-terminal GST-tagged human NLRP3deltaLRR mutant (1 to 649 residues) expressed in Escherichia coli BL21 assessed as decrease in pronase-mediated protein degradation at 1 to 100 uM incubated with compound for 50 mins followed by pronase digestion for 30 mins by DARTS analysis. Particulars: dose 1-100 µM, time 80.0 min.

A short description of data set [3]: AUC (0 to t) in BALB/c mouse at 10 mg/kg, po. Type of data set: ADME, organism-based. More on the design: dose 10 mg/kg, route po. Particulars: in vivo.
Data set [4] in a line: Apparent clearance in BALB/c mouse at 10 mg/kg, po. It is filed as ADME, organism-based. Particulars: in vivo.
Data set [5] can be described thus: MRT (0 to t) in BALB/c mouse at 10 mg/kg, iv. Particulars: in vivo. It is filed as ADME, organism-based.
A short description of data set [6]: Tmax in BALB/c mouse at 10 mg/kg, iv. Type of data set: ADME, organism-based. Particulars: in vivo.
Data set [7] relates to Mus musculus. The experiment in a line: Antiinflammatory activity against DSS-induced ulcerative colitis C57BL/6 mouse model assessed as decrease in body weight loss at 10 to 30 mg/kg, ip fed with DSS for 6 days followed by administration with compound for 5 days. Type of data set: functional, organism-based. Particulars: dose 10-30 mg/kg, time 5.0 day.
The test system of data set [8] is Mus musculus. The experiment in a line: Antiinflammatory activity against DSS-induced ulcerative colitis C57BL/6 mouse model assessed as decrease in disease activity index at 20 to 30 mg/kg, ip fed with DSS for 6 days followed by administration with compound for 5 days. It is filed as functional, organism-based. Particulars: dose 20-30 mg/kg, time 5.0 day.
For data set [9], the system named is Mus musculus. The experiment in a line: Antiinflammatory activity against DSS-induced ulcerative colitis C57BL/6 mouse model assessed as decrease in colon length shortening at 10 to 30 mg/kg, ip fed with DSS for 6 days followed by administration with compound for 5 days and measured on day 11. Type of data set: functional, organism-based. Particulars: dose 10-30 mg/kg, time 5.0 day.

Data set [10] has as its system Mus musculus. As to the kind of experiment: Antiinflammatory activity against DSS-induced ulcerative colitis C57BL/6 mouse model assessed as improvement in crypt deformation in colon at 10 to 30 mg/kg, ip fed with DSS for 6 days followed by administration with compound for 5 days and measured on day 11 by H and E staining based analysis. It is filed as functional, organism-based. Particulars: dose 10-30 mg/kg, time 5.0 day.

Data set [11] deals with Mus musculus. As to the kind of experiment: Antiinflammatory activity against DSS-induced ulcerative colitis C57BL/6 mouse model assessed as decrease in inflammatory cell infiltration in colon at 10 to 30 mg/kg, ip fed with DSS for 6 days followed by administration with compound for 5 days and measured on day 11 by H and E staining based analysis. Particulars: dose 10-30 mg/kg, time 5.0 day. It is filed as functional, organism-based.

Data set [12] concerns Mus musculus. As to the kind of experiment: Antiinflammatory activity against DSS-induced ulcerative colitis C57BL/6 mouse model assessed as decrease in goblet cell loss in colon at 10 to 30 mg/kg, ip fed with DSS for 6 days followed by administration with compound for 5 days and measured on day 11 by H and E staining based analysis. It is filed as functional, organism-based. Particulars: dose 10-30 mg/kg, time 5.0 day.

In data set [13] the target is NACHT, LRR and PYD domains-containing protein 3 (Mus musculus) (UniProt Q8R4B8). The experiment in a line: Inhibition of NLRP3 inflammasome in C57BL/6 mouse BMDM cells assessed as inhibition of IL-1 beta secretion at 0.2 to 0.8 uM pretreated with Pam3CSK4 for 3 hrs followed by incubation with compound for 40 mins and later stimulated with cytosolic LPS for 16 hrs by ELISA. Particulars: dose 0.2-0.8 µM, time 1000.0 min. It is filed as cell-based.
Chain of NACHT, LRR and PYD domains-containing protein 3 (Mus musculus) (Q8R4B8 whole entry, the tested form may be a part): as above

Activity calls are given as the source filed them. No cut-off for these calls is given here.

The half-life is how long it takes for the measured level to halve. Read a high half-life as slow decline. What is called IC50 is the point on the concentration scale where inhibition reaches its midpoint. What is called AUC(0-t) is exposure summed from dosing to a finite time, without extrapolation to infinity. High values mean more exposure, low ones less exposure. The CL/F is the apparent clearance, not corrected for the fraction that reaches the circulation. The MRT last is the average time that molecules of a dose stay in the body. What is called Tmax is the time at which the peak concentration occurs. Consider `CC(C)c1nn(Cc2nnc(-c3ccc(C(F)(F)F)nc3Cl)o2)c(=O)c2cc3sc(Cl)cc3n12`, for which the half-life in data set [1] amounted to 31.5 min. Moreover, the concentration for half-maximal inhibition (IC50) in data set [2] turned out to be 380 nM. Also, the outcome with THP-1 was inactive. The result in the data set filed under Homo sapiens, with Mus musculus [7], with Mus musculus [8], with Mus musculus [9], with Mus musculus [10] and in the data set with Mus musculus [11] was Active. Besides, in the data set on Mus musculus [12], the result was Active. The AUC(0-t) in data set [3] was 1170 ng·h/mL. For the same molecule, the CL/F in [4] was 144 mL/min/kg. Further, in data set [5], the MRT last is 92.4 min. Further, the Tmax in data set [6] is 4.8 min. For the same molecule, the inhibition result in [13] was “Active”.

(Values after ChEMBL document CHEMBL5365532, “Discovery of Triazinone Derivatives as Novel, Specific, and Direct NLRP3 Inflammasome Inhibitors for the Treatment of DSS-Induced Ulcerative Colitis” (J Med Chem, 2023).)
